From US5624917A, “Method of inhibiting squalene synthetase” (Takeda Chemical Industries, Ltd., priority 1991, dated 1997)
Structures can show the parent of a compound that is named as a salt. Where two headings read alike, the source gives them in different places.

Assays:
squalene synthetase [1] = target: T1, squalene synthetase (Homo sapiens, UniProt P37268); test: Squalene synthetase inhibitory activity, human enzyme (HepG2 microsome fraction); assay type: biochemical
T1 construct: From the resulting sonicate, microsome fraction was obtained according to the same manner as that described in Experiment 1; endogenous in cells; host or cells: HepG2 human hepatoma cells (microsome fraction)
T1 sequence (P37268 1-417): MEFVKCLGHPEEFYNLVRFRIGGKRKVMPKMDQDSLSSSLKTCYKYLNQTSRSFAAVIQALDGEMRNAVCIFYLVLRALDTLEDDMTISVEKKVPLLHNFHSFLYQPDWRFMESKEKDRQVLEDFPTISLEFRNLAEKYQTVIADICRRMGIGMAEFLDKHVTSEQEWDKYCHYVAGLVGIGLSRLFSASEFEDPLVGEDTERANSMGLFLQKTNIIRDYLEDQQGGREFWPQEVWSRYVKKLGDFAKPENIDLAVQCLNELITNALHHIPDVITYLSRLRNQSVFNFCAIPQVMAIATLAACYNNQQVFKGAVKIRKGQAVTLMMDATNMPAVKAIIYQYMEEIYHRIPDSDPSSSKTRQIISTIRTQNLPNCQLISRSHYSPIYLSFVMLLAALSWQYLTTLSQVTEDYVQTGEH
Description: (§1) Squalene synthetase inhibitory activity and cholesterol biosynthesis inhibitory activity of the compounds used in the present invention were determined by the following method.
(§2) Determination of squalene synthetase inhibitory activity
(§3) The squalene synthetase inhibitory activity was determined as follows by using the enzyme solutions shown in Experiments 1 and 2 below.
(§4) Each enzyme solution (Protein: 0.8 μg) prepared in Experiments 1 and 2 was added to a solution (total amount: 50 μl) containing 5 μM[1-^3 H]farnesylpyrophosphoric acid (Specific activity 25 μCi/μmole), 1 mM NADPH, 5 mM MgCl2, 6 mM glutathione, 100 mM potassium phosphate buffer (pH 7.4) and a drug to be tested (which was added as a solution thereof in water or DMSO). The mixture was allowed to react at 37° C. for 45 minutes. A mixture (150 μl) of chloroform and methanol (1:2) was added to stop the reaction. Then, chloroform (50 μl) and 3N sodium hydroxide solution (50 μl) were added. The chloroform layer (under layer, 50 μl) containing the reaction products in which the major component was squalene was mixed with toluene liquid scintillator (3 ml). The radioactivity was measured with a liquid scintillation counter.
(§5) The squalene synthetase inhibitory activity is indicated by the concentration (IC50, molarity(M)) which inhibits the radioactivity incorporated into the chloroform layer by 50%.
Preparation of human enzyme
Cultivation was carried out on Dulbecco modified Eagle medium containing 10% bovine fetal serum in the presence of 5% CO2 at 37° C. The human hepatoma cells HepG2 (ca. 1×10^9 cells) were suspended in an ice-cooled buffer solution (10 ml) [100 mM potassium phosphate (pH 7.4), 30 mM nicotinamide, 2.5 mM MgCl2 ], and the cells were crushed by ultrasonication (30 seconds, twice). From the resulting sonicate, microsome fraction was obtained according to the same manner as that described in Experiment 1. This microsome fraction was suspended in an ice-cooled 100 mM potassium phosphate buffer solution (pH 7.4) so that the protein concentration became about 4 mg/ml, and this suspension was used as the enzyme liquid.

squalene synthetase [2] = target: T2, squalene synthetase (Rattus norvegicus, UniProt Q02769); test: Squalene synthetase inhibitory activity, rat enzyme (rat liver microsome fraction); assay type: biochemical; conditions: 5 μM [1-3H]farnesylpyrophosphoric acid, pH 7.4, 37° C., 45 minutes
T2 construct: from tissue; host or cells: liver of male SD rats (microsome fraction)
T2 sequence (Q02769 1-416): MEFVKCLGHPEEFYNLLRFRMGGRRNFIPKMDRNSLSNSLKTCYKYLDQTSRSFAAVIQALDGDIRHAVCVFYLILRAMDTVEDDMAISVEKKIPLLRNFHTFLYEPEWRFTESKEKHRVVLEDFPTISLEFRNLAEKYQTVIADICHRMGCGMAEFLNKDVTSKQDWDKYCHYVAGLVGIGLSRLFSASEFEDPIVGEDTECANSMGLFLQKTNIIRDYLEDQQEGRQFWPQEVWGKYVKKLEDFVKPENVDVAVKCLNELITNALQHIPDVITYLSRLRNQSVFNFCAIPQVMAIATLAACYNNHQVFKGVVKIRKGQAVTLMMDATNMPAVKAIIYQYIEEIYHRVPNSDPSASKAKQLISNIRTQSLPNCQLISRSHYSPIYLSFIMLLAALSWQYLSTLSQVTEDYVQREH
Description: as §1, §2, §3, §4, §5
Preparation of rat enzyme
SD-Male rats (6 weeks old) were bled to death followed by removal of liver. The liver (ca. 10 g) was washed with ice-cooled physiological saline, homogenized in an ice-cooled buffer solution (15 ml) [100 mM potassium phosphate (pH 7.4), 15 mM nicotinamide, 2 mM MgCl2 ] and centrifuged at 10,000×g for 20 minutes (4° C.). The resulting supernatant was further centrifuged at 105,000×g for 90 minutes (4° C.). Then, the deposit was suspended in an ice-cooled 100 mM potassium phosphate buffer solution (pH 7.4) and centrifuged at 105,000×g for 90 minutes (4° C.) again. The deposit (microsome fraction) thus obtained was suspended in an ice-cooled 100 mM potassium phosphate buffer solution (pH 7.4) so that the protein concentration became about 40 mg/ml (measured with BCA Protein Assay Kit (Pias)), and the suspension was used as the enzyme solution.

[3] = human hepatoma HepG2 microsome fraction, 5 μM [1-3H]farnesylpyrophosphoric acid, pH 7.4, 37° C., 45 minutes, read-out: IC50, squalene synthetase inhibitory activity, Human enzyme
[4] = read-out: IC50, squalene synthetase inhibitory activity, Rat enzyme
[5] = IC50, squalene synthetase inhibitory activity, Rat enzyme

| Structure (SMILES) | IC50 (squalene synthetase [1]; [3]) [µM] | IC50 (squalene synthetase [2]; [4]) [µM] | IC50 (squalene synthetase [1]) [µM] | IC50 (squalene synthetase [2]; [5]) [µM] |
| --- | --- | --- | --- | --- |
| CC(C)CCCC(C)CCCC(C)CCC(P(=O)(O)O)P(=O)(O)O (centres unmarked) [Compound No. 108, disodium 4,8,12-trimethyltridecylidene-1,1-bisphosphonate] | 0.044 | 0.023 | – | – |
| O=P(O)(O)C(O)(CCCCCSc1ccccn1)P(=O)(O)O [Compound No. 109, trisodium 1-hydroxy-6-(2-pyridylthio)hexane-1,1-bisphosphonate] | 5.8 | 1.3 | – | – |
| O=P(O)(O)C(NCCCCNc1ccccc1)P(=O)(O)O [Compound No. 110, 4-(phenylamino)butylaminomethylene-1,1-bisphosphonic acid hydrochloride] | 0.061 | 0.044 | – | – |
| CCOP(=O)(O)C(NC/C=C(\C)CC/C=C(\C)CCC=C(C)C)P(=O)(O)O (centres unmarked) [Compound No. 111, (E,E)-farnesylaminomethylenebisphosphonic acid monoethyl ester monosodium salt] | – | – | 0.022 | 0.019 |
| CCOP(=O)(O)C(NCCCCCCSc1ccccc1)P(=O)(O)O (centres unmarked) [Compound No. 113, 6-(phenylthio)hexylaminomethylenebisphosphonic acid monoethyl ester monosodium salt] | – | – | 0.0098 | 0.015 |
| O=P(O)(O)C(NCCCCSc1ccccc1)P(=O)(O)O [compound 1] | 0.0089 | 0.018 | – | – |
| O=P(O)(O)C(NCCCCSc1ccccn1)P(=O)(O)O [compound 2] | 0.18 | 0.097 | – | – |
| O=P(O)(O)C(NCCCCSc1ccncc1)P(=O)(O)O [compound 3] | 0.3 | 0.21 | – | – |
| CCSCCCCNC(P(=O)(O)O)P(=O)(O)O [compound 4] | 1.3 | 0.37 | – | – |
| CC(C)(C)SCCCCNC(P(=O)(O)O)P(=O)(O)O [compound 5] | 9.1 | 0.76 | – | – |
| O=P(O)(O)C(NCCCCCSc1ccccc1)P(=O)(O)O [compound 6] | – | 0.0057 | – | – |
| O=P(O)(O)C(NCCCCCSC1CCCCC1)P(=O)(O)O [compound 7] | 0.018 | 0.019 | – | – |
| CCSCCCCCNC(P(=O)(O)O)P(=O)(O)O [compound 8] | 0.11 | 0.068 | – | – |
| O=P(O)(O)C(NCCCC[S+]([O-])c1ccccc1)P(=O)(O)O (centres unmarked) [compound 9] | 0.0063 | 0.009 | – | – |
| O=P(O)(O)C(NCCCCCOc1ccccc1)P(=O)(O)O [compound 10] | 0.0052 | 0.0081 | – | – |
| O=P(O)(O)C(NCCCCCCSc1ccccc1)P(=O)(O)O [compound 11] | 0.0015 | 0.0036 | – | – |
| O=P(O)(O)C(NCCCCS(=O)(=O)c1ccccc1)P(=O)(O)O [compound 12] | – | 6.4 | – | – |
| O=P(O)(O)C(NCCCCOc1ccc2c(c1)OCO2)P(=O)(O)O [compound 13] | 0.014 | 0.019 | – | – |
| CCOP(=O)(OCC)C(NCCCCCc1ccccc1)P(=O)(OCC)OCC [compound 14] | 0.45 | 0.56 | – | – |
| CCOP(=O)(OCC)C(NCCCCCSC1CCCCC1)P(=O)(OCC)OCC [compound 15] | – | 4.1 | – | – |
| O=P(O)(O)C(NCCSCCc1ccccc1)P(=O)(O)O [compound 16] | 0.0097 | 0.02 | – | – |
| O=P(O)(O)C(NCCCSCc1ccccc1)P(=O)(O)O [compound 17] | 0.012 | 0.018 | – | – |

| Structure (SMILES) | IC50 (squalene synthetase [1]; [3]) [µM] | IC50 (squalene synthetase [2]; [4]) [µM] | IC50 (squalene synthetase [1]) [µM] | IC50 (squalene synthetase [2]; [5]) [µM] |
| --- | --- | --- | --- | --- |
| CCOP(=O)(OCC)C(NCCSCCc1ccccc1)P(=O)(OCC)OCC [compound 18] | 0.61 | 0.79 | – | – |
| CCOP(=O)(OCC)C(NCCCCCCSc1ccccc1)P(=O)(OCC)OCC [compound 19] | 6.9 | 7.5 | – | – |
| O=P(O)(O)C(NC1CCCCCC1)P(=O)(O)O [compound 20] | 6.4 | 0.94 | – | – |
| O=P(O)(O)C(CCCc1ccccc1)P(=O)(O)O [compound 21, 4-phenylbutylidene-1,1-bisphosphonic acid] | – | 5.5 | – | – |
| CCOP(=O)(OCC)C(NCCCCCCSc1ccc(Cl)cc1)P(=O)(OCC)OCC [compound 28] | 3.2 | 6.2 | – | – |
| O=P(O)(O)C(NCCCCCC[S+]([O-])c1ccccc1)P(=O)(O)O (centres unmarked) [compound 60, disodium 6-(phenylsulfinyl)hexylaminomethylenebisphosphonate] | 0.0031 | 0.006 | – | – |
| O=P(O)(O)C(NCCCCCCCCCCSc1ccccc1)P(=O)(O)O [compound 61] | 0.00047 | 0.00058 | – | – |
| CC(C)CCCC(C)CCCC(C)CCNC(P(=O)(O)O)P(=O)(O)O (centres unmarked) [compound 63] | 0.0022 | 0.0043 | – | – |
| O=P(O)(O)C(NCCCCCC[S+]([O-])c1ccc2ccccc2c1)P(=O)(O)O (centres unmarked) [compound 66] | 0.004 | 0.0047 | – | – |
| O=P(O)(O)C(NCCCCCCCCCCC[S+]([O-])c1ccccc1)P(=O)(O)O (centres unmarked) [compound 72] | 0.0046 | 0.0045 | – | – |
| O=P(O)(O)C(NCCCCCCCCCSc1ncccn1)P(=O)(O)O [compound 79] | 0.007 | 0.0088 | – | – |
| O=P(O)(O)C(NCCCCCCSc1nnc2ccccn12)P(=O)(O)O [compound 81] | 1.8 | 0.2 | – | – |
| O=P(O)(O)C(NCCCCCCSc1nc2ccccc2s1)P(=O)(O)O [compound 83] | 0.0084 | 0.0043 | – | – |
| CC(C)=CCC/C(C)=C/CNC(P(=O)(O)O)P(=O)(O)O [compound 86] | 0.035 | 0.027 | – | – |
| O=P(O)(O)C(NCCCCCSc1ccccc1)P(=O)(O)O [compound 88] | – | 0.013 | – | – |
| O=P(O)(O)C(NCCCCCCCCCCCCSc1ccccc1)P(=O)(O)O [compound 89, monosodium 12-(phenylthio)dodecylaminomethylenebisphosphonate] | – | 0.0081 | – | – |
| CC(C)=CCC/C(C)=C/CC/C(C)=C/CNC(P(=O)(O)O)P(=O)(O)O [compound 93] | 0.02 | 0.019 | – | – |
| CC(C)=CCC/C(C)=C/CC/C(C)=C/CNC(P(=O)(O)O)P(=O)(O)O [compound 99] | 0.0067 | 0.0069 | – | – |
| O=P(O)(O)C(NCCCCCCCCCSc1ncccn1)P(=O)(O)O [compound 100] | 0.012 | 0.012 | – | – |
| O=P(O)(O)C(NCCCCCCCCCCSc1ncccn1)P(=O)(O)O [compound 101] | 0.0061 | 0.0078 | – | – |
| O=P(O)(O)C(NCCCCCCCCCCCSc1ccccc1)P(=O)(O)O [compound 102, trisodium 11-(phenylthio)undecylaminomethylenebisphosphonate] | 0.003 | 0.0031 | – | – |
